In US10202389B2, “Pyrazolopyrimidinyl inhibitors of ubiquitin-activating enzyme” (Millennium Pharmaceuticals, Inc., priority 2012, dated 2019) one finds inhibition data, which are given here for 21 compounds.

SMILES strings stand for the structures.

For one experiment, the target named is mouse UAE (Mus musculus (Mouse), UniProt Q02053). In words: Ubiquitin Activating Enzyme (UAE) HTRF Assay. The settings on record: read-out: % inhibition @0.111 μM. In general terms: TR-FRET usually uses a lanthanide donor and a delayed reading to cut background.
Sequence of mouse UAE (Q02053 whole entry): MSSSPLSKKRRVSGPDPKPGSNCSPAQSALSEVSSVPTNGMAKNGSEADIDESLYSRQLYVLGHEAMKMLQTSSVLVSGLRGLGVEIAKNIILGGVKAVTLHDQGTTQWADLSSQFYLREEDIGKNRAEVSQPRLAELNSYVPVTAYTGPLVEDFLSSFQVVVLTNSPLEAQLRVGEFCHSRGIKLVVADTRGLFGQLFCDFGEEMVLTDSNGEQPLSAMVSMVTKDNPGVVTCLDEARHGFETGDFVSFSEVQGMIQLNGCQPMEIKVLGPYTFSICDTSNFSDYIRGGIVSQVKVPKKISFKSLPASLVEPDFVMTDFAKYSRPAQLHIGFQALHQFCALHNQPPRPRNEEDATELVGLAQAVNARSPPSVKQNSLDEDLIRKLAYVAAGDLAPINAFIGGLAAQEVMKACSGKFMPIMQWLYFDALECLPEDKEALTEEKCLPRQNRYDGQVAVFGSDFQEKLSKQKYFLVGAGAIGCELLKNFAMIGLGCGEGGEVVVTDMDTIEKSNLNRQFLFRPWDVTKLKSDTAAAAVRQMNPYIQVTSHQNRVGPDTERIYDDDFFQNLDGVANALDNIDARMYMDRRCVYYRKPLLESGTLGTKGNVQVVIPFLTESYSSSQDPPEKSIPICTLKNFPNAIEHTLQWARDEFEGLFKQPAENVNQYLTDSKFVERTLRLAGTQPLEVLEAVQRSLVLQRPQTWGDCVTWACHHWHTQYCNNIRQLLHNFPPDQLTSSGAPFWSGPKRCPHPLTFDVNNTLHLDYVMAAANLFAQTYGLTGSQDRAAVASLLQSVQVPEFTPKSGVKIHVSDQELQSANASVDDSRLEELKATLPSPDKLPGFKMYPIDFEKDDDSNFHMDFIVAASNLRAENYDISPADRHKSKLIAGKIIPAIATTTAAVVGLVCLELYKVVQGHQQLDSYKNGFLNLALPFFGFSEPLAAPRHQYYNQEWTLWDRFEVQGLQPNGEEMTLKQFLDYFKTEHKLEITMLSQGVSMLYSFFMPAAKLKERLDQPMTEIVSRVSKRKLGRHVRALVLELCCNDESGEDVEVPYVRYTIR
The next experiment concerns the target recombinant human UAE (Homo sapiens (Human), UniProt P22314). Description: Ubiquitin Activating Enzyme (UAE) HTRF Assay. The settings on record: read-out: % inhibition @0.111 μM.

Sequence of recombinant human UAE (P22314 whole entry): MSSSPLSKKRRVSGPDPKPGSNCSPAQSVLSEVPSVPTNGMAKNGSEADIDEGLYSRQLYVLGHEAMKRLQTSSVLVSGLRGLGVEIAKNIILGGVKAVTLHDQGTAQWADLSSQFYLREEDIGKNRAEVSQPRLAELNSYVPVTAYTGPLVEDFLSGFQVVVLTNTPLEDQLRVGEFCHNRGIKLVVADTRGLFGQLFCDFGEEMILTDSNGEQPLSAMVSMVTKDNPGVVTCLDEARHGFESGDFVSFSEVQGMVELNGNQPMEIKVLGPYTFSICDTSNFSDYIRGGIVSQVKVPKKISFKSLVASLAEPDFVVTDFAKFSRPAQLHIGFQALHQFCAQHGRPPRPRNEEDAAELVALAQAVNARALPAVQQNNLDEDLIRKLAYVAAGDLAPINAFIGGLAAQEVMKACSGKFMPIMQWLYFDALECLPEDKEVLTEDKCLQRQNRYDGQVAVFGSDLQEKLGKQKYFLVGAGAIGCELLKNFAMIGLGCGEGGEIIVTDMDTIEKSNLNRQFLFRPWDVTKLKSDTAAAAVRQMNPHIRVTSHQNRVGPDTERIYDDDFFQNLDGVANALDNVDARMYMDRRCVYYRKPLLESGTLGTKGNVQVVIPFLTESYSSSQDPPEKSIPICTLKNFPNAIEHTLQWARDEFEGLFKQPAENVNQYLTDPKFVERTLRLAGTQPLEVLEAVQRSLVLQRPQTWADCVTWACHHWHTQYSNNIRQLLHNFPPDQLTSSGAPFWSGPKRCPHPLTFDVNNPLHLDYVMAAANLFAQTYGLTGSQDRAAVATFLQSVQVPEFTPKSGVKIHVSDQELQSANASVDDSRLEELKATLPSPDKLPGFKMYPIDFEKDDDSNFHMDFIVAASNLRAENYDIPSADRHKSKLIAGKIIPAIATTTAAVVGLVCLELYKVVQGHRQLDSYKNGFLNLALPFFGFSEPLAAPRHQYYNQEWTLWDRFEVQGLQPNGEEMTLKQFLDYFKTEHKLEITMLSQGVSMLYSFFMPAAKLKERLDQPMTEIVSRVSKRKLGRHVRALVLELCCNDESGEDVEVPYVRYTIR
Procedure for mouse UAE: (§1) After incubation for 120 minutes, quantification of the FRET is performed on the Pherostar (BMG).
(§2) For compounds whose values are marked with an asterisk (*), mouse UAE was used. For all other compounds, human UAE was used.
Procedure for recombinant human UAE: as §1, §2

In general, inhibition refers to the share of the control response that was lost under treatment. On to `NS(=O)(=O)OC[C@H]1C[C@@H](Nc2ccnc3cc(-c4ccccn4)nn23)[C@H](O)[C@@H]1O` (relative stereo) [Compound I-012, (rac)-[(1R,2R,3S,4R)-2,3-dihydroxy-4-{[2-(pyridin-2-yl)pyrazolo[1,5-a]pyrimidin-7-yl]amino}cyclopentyl]methyl rel-sulfamate], for which the inhibition at 0.111 µM at mouse UAE is 61%.

For the compound `NS(=O)(=O)OC[C@H]1C[C@@H](Nc2ccnc3cc(-c4csc5cc(Cl)ccc45)nn23)[C@H](O)[C@@H]1O` (relative stereo) [Compound I-091, (rac)-((1R,2R,3S,4R)-4-(2-(6-chlorobenzo[b]thiophen-3-yl)pyrazolo[1,5-a]pyrimidin-7-ylamino)-2,3-dihydroxycyclopentyl)methyl rel-sulfamate], the inhibition at 0.111 µM at mouse UAE was found to be 100%.

Take `NS(=O)(=O)OC[C@H]1C[C@@H](Nc2ccnc3cc(-c4cccc(Cl)c4)nn23)[C@H](O)[C@@H]1O` (relative stereo) [Compound I-005, (rac)-((1R,2R,3S,4R)-4-((2-(3-Chlorophenyl)pyrazolo[1,5-a]pyrimidin-7-yl)amino)-2,3-dihydroxycyclopentyl)methyl rel-sulfamate]: the inhibition at 0.111 µM at mouse UAE worked out at 100%.

Take `NS(=O)(=O)OC[C@H]1C[C@@H](Nc2ccnc3cc(-c4ccccc4)nn23)[C@H](O)[C@@H]1O` (relative stereo) [Compound I-001, (rac)-((1R,2R,3S,4R)-2,3-dihydroxy-4-(2-phenylpyrazolo[1,5-a]pyrimidin-7-ylamino)cyclopentyl)methyl rel-sulfamate]: on mouse UAE, the inhibition at 0.111 µM is 72%.

On to `NS(=O)(=O)OC[C@H]1C[C@@H](Nc2ccnc3cc(-c4cccc5ccccc45)nn23)[C@H](O)[C@@H]1O` (relative stereo) [Compound I-002, (rac)-((1R,2R,3S,4R)-2,3-dihydroxy-4-{[2-(1-naphthyl)pyrazolo[1,5-a]pyrimidin-7-yl]amino}cyclopentyl)methyl rel-sulfamate], for which the inhibition at 0.111 µM on mouse UAE was found to be 100%.

On to `COc1ccc2ccccc2c1-c1cc2nccc(N[C@@H]3C[C@H](COS(N)(=O)=O)[C@@H](O)[C@H]3O)n2n1` [Compound I-104, (s.e.)-((1R,2R,3S,4R)-2,3-dihydroxy-4-(2-(2-methoxynaphthalen-1-yl)pyrazolo[1,5-a]pyrimidin-7-ylamino)cyclopentyl)methyl sulfamate], for which the inhibition at 0.111 µM on recombinant human UAE came out at 100%.

`NS(=O)(=O)OC[C@H]1C[C@@H](Nc2cc(Cl)nc3cc(-c4ccccc4)nn23)[C@H](O)[C@@H]1O` (relative stereo) [Compound I-006, (rac)-{(1R,2R,3S,4R)-4-[(5-chloro-2-phenylpyrazolo[1,5-a]pyrimidin-7-yl)amino]-2,3-dihydroxycyclopentyl}methyl rel-sulfamate]: at recombinant human UAE, the inhibition at 0.111 µM is 23%.

With `NS(=O)(=O)OC[C@H]1C[C@@H](Nc2ccnc3cc(-c4ccc5ccccc5n4)nn23)[C@H](O)[C@@H]1O` (relative stereo) [Compound I-042, (rac)-((1R,2R,3S,4R)-2,3-dihydroxy-4-(2-(quinolin-2-yl)pyrazolo[1,5-a]pyrimidin-7-ylamino)cyclopentyl)methyl rel-sulfamate], at recombinant human UAE, the inhibition at 0.111 µM worked out at 100%.

Regarding `NS(=O)(=O)OC[C@H]1C[C@@H](Nc2ccnc3cc(-c4cccc5sccc45)nn23)[C@H](O)[C@@H]1O` (relative stereo) [Compound I-061, (rac)-((1R,2R,3S,4R)-4-((2-(Benzo[b]thiophen-4-yl)pyrazolo[1,5-a]pyrimidin-7-yl)amino)-2,3-dihydroxycyclopentyl)methyl rel-sulfamate], the inhibition at 0.111 µM on recombinant human UAE is 100%.

Turning to `NS(=O)(=O)OC[C@H]1C[C@@H](Nc2cc(Cl)nc3cc(-c4ccccn4)nn23)[C@H](O)[C@@H]1O` (relative stereo) [Compound I-011, (rac)-((1R,2R,3S,4R)-4-(5-chloro-2-(pyridin-2-yl)pyrazolo[1,5-a]pyrimidin-7-ylamino)-2,3-dihydroxycyclopentyl)methyl rel-sulfamate], the inhibition at 0.111 µM on mouse UAE was found to be 49%.

Consider `CC1(C)OCc2ccc(-c3cc4nccc(N[C@@H]5C[C@H](COS(N)(=O)=O)[C@@H](O)[C@H]5O)n4n3)cc21` (relative stereo) [Compound I-053, (rac)-((1R,2R,3S,4R)-4-(2-(3,3-dimethyl-1,3-dihydroisobenzofuran-5-yl)pyrazolo[1,5-a]pyrimidin-7-ylamino)-2,3-dihydroxycyclopentyl)methyl rel-sulfamate], for which the inhibition at 0.111 µM on recombinant human UAE amounted to 100%.

With `NS(=O)(=O)OC[C@H]1C[C@@H](Nc2ccnc3cc(-c4csc5ccc(Cl)cc45)nn23)[C@H](O)[C@@H]1O` (relative stereo) [Compound I-071, (rac)-((1R,2R,3S,4R)-4-(2-(5-chlorobenzo[b]thiophen-3-yl)pyrazolo[1,5-a]pyrimidin-7-ylamino)-2,3-dihydroxycyclopentyl)methyl rel-sulfamate], the inhibition at 0.111 µM at recombinant human UAE amounted to 100%.

For `NS(=O)(=O)OC[C@H]1C[C@@H](Nc2ccnc3cc(-c4coc5ccc(Cl)cc45)nn23)[C@H](O)[C@@H]1O` (relative stereo) [Compound I-092, (rac)-((1R,2R,3S,4R)-4-(2-(5-chlorobenzofuran-3-yl)pyrazolo[1,5-a]pyrimidin-7-ylamino)-2,3-dihydroxycyclopentyl)methyl rel-sulfamate], the inhibition at 0.111 µM at recombinant human UAE was found to be 100%.

Consider `NS(=O)(=O)OC[C@H]1C[C@@H](Nc2ccnc3cc(-c4cccc(SCC5CC5)c4)nn23)[C@H](O)[C@@H]1O` (relative stereo) [Compound I-076, (rac)-((1R,2R,3S,4R)-4-(2-(3-(cyclopropylmethylthio)phenyl)pyrazolo[1,5-a]pyrimidin-7-ylamino)-2,3-dihydroxycyclopentyl)methyl rel-sulfamate], for which the inhibition at 0.111 µM at recombinant human UAE was determined as 100%.

For the compound `NS(=O)(=O)OC[C@H]1C[C@@H](Nc2ccnc3cc(-c4cc5ccc(Cl)cc5s4)nn23)[C@H](O)[C@@H]1O` (relative stereo) [Compound I-088, (rac)-((1R,2R,3S,4R)-4-(2-(6-chlorobenzo[b]thiophen-2-yl)pyrazolo[1,5-a]pyrimidin-7-ylamino)-2,3-dihydroxycyclopentyl)methyl rel-sulfamate], at recombinant human UAE, the inhibition at 0.111 µM was found to be 97%.

With `NS(=O)(=O)OC[C@H]1C[C@@H](Nc2ccnc3cc(-c4cccc5ccsc45)nn23)[C@H](O)[C@@H]1O` (relative stereo) [Compound I-045, (rac)-((1R,2R,3S,4R)-4-((2-(Benzo[b]thiophen-7-yl)pyrazolo[1,5-a]pyrimidin-7-yl)amino)-2,3-dihydroxycyclopentyl)methyl rel-sulfamate], at recombinant human UAE, the inhibition at 0.111 µM came to 100%.

`CC1(C)COc2ccc(-c3cc4nccc(N[C@@H]5C[C@H](COS(N)(=O)=O)[C@@H](O)[C@H]5O)n4n3)cc21` (relative stereo) [Compound I-026, (rac)-((1R,2R,3S,4R)-4-(2-(3,3-dimethyl-2,3-dihydrobenzofuran-5-yl)pyrazolo[1,5-a]pyrimidin-7-ylamino)-2,3-dihydroxycyclopentyl)methyl rel-sulfamate]: the inhibition at 0.111 µM on recombinant human UAE stood at 100%.

`NS(=O)(=O)OC[C@H]1C[C@@H](Nc2ccnc3cc(-c4cccc(SC(F)(F)F)c4)nn23)[C@H](O)[C@@H]1O` [Compound I-101, (s.e.)-((1R,2R,3S,4R)-2,3-dihydroxy-4-(2-(3-(trifluoromethylthio)phenyl)pyrazolo[1,5-a]pyrimidin-7-ylamino)cyclopentyl)methyl sulfamate]: the inhibition at 0.111 µM on recombinant human UAE came out at 99%.

On to `NS(=O)(=O)OC[C@H]1C[C@@H](Nc2ccnc3cc(-c4csc5ccccc45)nn23)[C@H](O)[C@@H]1O` (relative stereo) [Compound I-022, (rac)-((1R,2R,3S,4R)-4-(2-(benzo[b]thiophen-3-yl)pyrazolo[1,5-a]pyrimidin-7-ylamino)-2,3-dihydroxycyclopentyl)methyl rel-sulfamate], for which the inhibition at 0.111 µM at recombinant human UAE was determined as 100%.

On to `NS(=O)(=O)OC[C@H]1C[C@@H](Nc2ccnc3cc(-c4ccc5[nH]ccc5c4)nn23)[C@H](O)[C@@H]1O` (relative stereo) [Compound I-074, (rac)-[(1R,2R,3S,4R)-2,3-dihydroxy-4-{[2-(1H-indol-5-yl)pyrazolo[1,5-a]pyrimidin-7-yl]amino}cyclopentyl]methyl rel-sulfamate], for which the inhibition at 0.111 µM at recombinant human UAE was 98%.

Turning to `NS(=O)(=O)OC[C@H]1C[C@@H](Nc2ccnc3cc(-c4cccc5c4oc4ccccc45)nn23)[C@H](O)[C@@H]1O` [Compound I-103, (s.e.)-((1R,2R,3S,4R)-4-(2-(dibenzo[b,d]furan-4-yl)pyrazolo[1,5-a]pyrimidin-7-ylamino)-2,3-dihydroxycyclopentyl)methyl sulfamate], on recombinant human UAE, the inhibition at 0.111 µM is 100%.
